Measurements as given in PubChem BioAssay (NCI).
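Exposure lasted 48 hours, with cells grown in 96-well plates and compounds tested at five concentrations. TGI denotes the concentration required for complete inhibition of growth.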

Tests used:
Test in all cases: growth of human tumour cells (NCI), 48 h
MALME-3M melanoma = tested on: MALME-3M melanoma
CAKI-1 renal = tested on: CAKI-1 renal
TK-10 renal = tested on: TK-10 renal
UACC-62 melanoma = tested on: UACC-62 melanoma
ACHN renal = tested on: ACHN renal
SK-MEL-2 melanoma = tested on: SK-MEL-2 melanoma
SK-OV-3 ovarian = tested on: SK-OV-3 ovarian
COLO 205 colon = tested on: COLO 205 colon
HCT-116 colon = tested on: HCT-116 colon
OVCAR-8 ovarian = tested on: OVCAR-8 ovarian
EKVX NSCLC = tested on: EKVX NSCLC
SNB-19 CNS = tested on: SNB-19 CNS
SF-295 CNS = tested on: SF-295 CNS
NCI/ADR-RES ovarian = tested on: NCI/ADR-RES ovarian
MDA-MB-231 breast = tested on: MDA-MB-231 breast
OVCAR-5 ovarian = tested on: OVCAR-5 ovarian
A549 NSCLC = tested on: A549 NSCLC
HS 578T breast = tested on: HS 578T breast
BT-549 breast = tested on: BT-549 breast
K-562 leukemia = tested on: K-562 leukemia
HCT-15 colon = tested on: HCT-15 colon
SF-268 CNS = tested on: SF-268 CNS
RXF 393 renal = tested on: RXF 393 renal
MDA-MB-435 = tested on: MDA-MB-435
HL-60(TB) leukemia = tested on: HL-60(TB) leukemia
NCI-H23 lung = tested on: NCI-H23 lung
SNB-75 CNS = tested on: SNB-75 CNS
T-47D breast = tested on: T-47D breast
HOP-92 NSCLC = tested on: HOP-92 NSCLC
HOP-62 NSCLC = tested on: HOP-62 NSCLC
M14 melanoma = tested on: M14 melanoma
LOX IMVI melanoma = tested on: LOX IMVI melanoma
NCI-H522 lung = tested on: NCI-H522 lung
HCC-2998 colon = tested on: HCC-2998 colon
SK-MEL-28 melanoma = tested on: SK-MEL-28 melanoma
PC-3 prostate = tested on: PC-3 prostate
RPMI-8226 leukemia = tested on: RPMI-8226 leukemia
CCRF-CEM leukemia = tested on: CCRF-CEM leukemia
SR leukemia = tested on: SR leukemia
IGROV1 ovarian = tested on: IGROV1 ovarian
DU-145 prostate = tested on: DU-145 prostate
MDA-N = tested on: MDA-N
MOLT-4 leukemia = tested on: MOLT-4 leukemia
UACC-257 melanoma = tested on: UACC-257 melanoma
OVCAR-4 ovarian = tested on: OVCAR-4 ovarian
SK-MEL-5 melanoma = tested on: SK-MEL-5 melanoma
HT29 colon = tested on: HT29 colon
UO-31 renal = tested on: UO-31 renal
OVCAR-3 ovarian = tested on: OVCAR-3 ovarian
U251 CNS = tested on: U251 CNS
MCF7 breast = tested on: MCF7 breast
KM12 colon = tested on: KM12 colon
NCI-H226 lung = tested on: NCI-H226 lung
SF-539 CNS = tested on: SF-539 CNS
SW-620 colon = tested on: SW-620 colon
786-0 renal = tested on: 786-0 renal
SN12C renal = tested on: SN12C renal
NCI-H460 lung = tested on: NCI-H460 lung
A498 renal = tested on: A498 renal

With `Cc1cc2ncn(C3CCCO3)c2cc1C` (stereo unspecified) the TGI (MALME-3M melanoma) was greater than 100 µM, the TGI (CAKI-1 renal) was greater than 100 µM and the TGI (TK-10 renal) was greater than 100 µM. For the same compound, the TGI (UACC-62 melanoma) was greater than 100 µM, the TGI (ACHN renal) was greater than 100 µM and the TGI (SK-MEL-2 melanoma) was greater than 100 µM. It also gave a TGI (SK-OV-3 ovarian) greater than 100 µM, a TGI (COLO 205 colon) greater than 100 µM and a TGI (HCT-116 colon) greater than 100 µM. It also gave a TGI (OVCAR-8 ovarian) greater than 100 µM, a TGI (EKVX NSCLC) greater than 100 µM and a TGI (SNB-19 CNS) greater than 100 µM. It also gave a TGI (SF-295 CNS) greater than 100 µM, a TGI (NCI/ADR-RES ovarian) greater than 100 µM and a TGI (MDA-MB-231 breast) greater than 100 µM. The TGI (OVCAR-5 ovarian) was greater than 100 µM, the TGI (A549 NSCLC) was greater than 100 µM and the TGI (HS 578T breast) was greater than 100 µM. The TGI (BT-549 breast) was greater than 100 µM, the TGI (K-562 leukemia) was greater than 100 µM and the TGI (HCT-15 colon) was greater than 100 µM. The TGI (SF-268 CNS) was greater than 100 µM, the TGI (RXF 393 renal) was greater than 100 µM and the TGI (MDA-MB-435) was greater than 100 µM. It also gave a TGI (HL-60(TB) leukemia) greater than 100 µM, a TGI (NCI-H23 lung) greater than 100 µM and a TGI (SNB-75 CNS) greater than 100 µM. The TGI (T-47D breast) was greater than 100 µM, the TGI (HOP-92 NSCLC) was greater than 100 µM and the TGI (HOP-62 NSCLC) was greater than 100 µM. The TGI (M14 melanoma) was greater than 100 µM, the TGI (LOX IMVI melanoma) was greater than 100 µM and the TGI (NCI-H522 lung) was greater than 100 µM. For the same compound, the TGI (HCC-2998 colon) was greater than 100 µM, the TGI (SK-MEL-28 melanoma) was greater than 100 µM and the TGI (PC-3 prostate) was greater than 100 µM. The TGI (RPMI-8226 leukemia) was greater than 100 µM, the TGI (CCRF-CEM leukemia) was greater than 100 µM and the TGI (SR leukemia) was greater than 100 µM. The TGI (IGROV1 ovarian) was greater than 100 µM, the TGI (DU-145 prostate) was greater than 100 µM and the TGI (MDA-N) was greater than 100 µM. For the same compound, the TGI (MOLT-4 leukemia) was greater than 100 µM, the TGI (UACC-257 melanoma) was greater than 100 µM and the TGI (OVCAR-4 ovarian) was greater than 100 µM. It also gave a TGI (SK-MEL-5 melanoma) greater than 100 µM, a TGI (HT29 colon) greater than 100 µM and a TGI (UO-31 renal) greater than 100 µM. It also gave a TGI (OVCAR-3 ovarian) greater than 100 µM, a TGI (U251 CNS) greater than 100 µM and a TGI (MCF7 breast) greater than 100 µM. The TGI (KM12 colon) was greater than 100 µM, the TGI (NCI-H226 lung) was greater than 100 µM and the TGI (SF-539 CNS) was greater than 100 µM. For the same compound, the TGI (SW-620 colon) was greater than 100 µM, the TGI (786-0 renal) was greater than 100 µM and the TGI (SN12C renal) was greater than 100 µM.
`Cn1c(O)c(C2=Nc3ccccc3C2=O)c2ccccc21` showed a TGI (MALME-3M melanoma) greater than 100 µM, a TGI (CAKI-1 renal) greater than 100 µM and a TGI (TK-10 renal) greater than 100 µM. For the same compound, the TGI (UACC-62 melanoma) was greater than 100 µM, the TGI (ACHN renal) was greater than 100 µM and the TGI (SK-MEL-2 melanoma) was greater than 100 µM. For the same compound, the TGI (SK-OV-3 ovarian) was greater than 100 µM, the TGI (COLO 205 colon) was greater than 100 µM and the TGI (HCT-116 colon) was greater than 100 µM. The TGI (OVCAR-8 ovarian) was greater than 100 µM, the TGI (EKVX NSCLC) was greater than 100 µM and the TGI (SNB-19 CNS) was greater than 100 µM. It also gave a TGI (SF-295 CNS) greater than 100 µM, a TGI (NCI/ADR-RES ovarian) greater than 100 µM and a TGI (MDA-MB-231 breast) greater than 100 µM. For the same compound, the TGI (OVCAR-5 ovarian) was greater than 100 µM, the TGI (A549 NSCLC) was greater than 100 µM and the TGI (HS 578T breast) was greater than 100 µM. It also gave a TGI (BT-549 breast) greater than 100 µM, a TGI (K-562 leukemia) greater than 100 µM and a TGI (HCT-15 colon) greater than 100 µM. The TGI (SF-268 CNS) was greater than 100 µM, the TGI (RXF 393 renal) was greater than 100 µM and the TGI (MDA-MB-435) was greater than 100 µM. It also gave a TGI (NCI-H23 lung) greater than 100 µM, a TGI (SNB-75 CNS) greater than 100 µM and a TGI (T-47D breast) greater than 100 µM. The TGI (HOP-92 NSCLC) was greater than 100 µM, the TGI (HOP-62 NSCLC) was greater than 100 µM and the TGI (M14 melanoma) was greater than 100 µM. The TGI (LOX IMVI melanoma) was greater than 100 µM, the TGI (NCI-H522 lung) was greater than 100 µM and the TGI (HCC-2998 colon) was greater than 100 µM. For the same compound, the TGI (NCI-H460 lung) was greater than 100 µM, the TGI (SK-MEL-28 melanoma) was greater than 100 µM and the TGI (PC-3 prostate) was greater than 100 µM. The TGI (RPMI-8226 leukemia) was greater than 100 µM, the TGI (CCRF-CEM leukemia) was greater than 100 µM and the TGI (SR leukemia) was greater than 100 µM. It also gave a TGI (IGROV1 ovarian) greater than 100 µM, a TGI (DU-145 prostate) greater than 100 µM and a TGI (MDA-N) greater than 100 µM. The TGI (MOLT-4 leukemia) was greater than 100 µM, the TGI (A498 renal) was greater than 100 µM and the TGI (UACC-257 melanoma) was greater than 100 µM. For the same compound, the TGI (OVCAR-4 ovarian) was greater than 100 µM, the TGI (SK-MEL-5 melanoma) was greater than 100 µM and the TGI (HT29 colon) was greater than 100 µM. For the same compound, the TGI (UO-31 renal) was greater than 100 µM, the TGI (OVCAR-3 ovarian) was greater than 100 µM and the TGI (U251 CNS) was greater than 100 µM. For the same compound, the TGI (MCF7 breast) was greater than 100 µM, the TGI (KM12 colon) was greater than 100 µM and the TGI (NCI-H226 lung) was greater than 100 µM. The TGI (SW-620 colon) was greater than 100 µM, the TGI (786-0 renal) was greater than 100 µM and the TGI (SN12C renal) was greater than 100 µM.
In the case of `COc1cc(C2SC(N)=Nc3c2c(C)nn3C(=O)c2ccc(Cl)cc2)cc(OC)c1OC` (stereo unspecified), the TGI (MALME-3M melanoma) is reported as greater than 10 µM, the TGI (CAKI-1 renal) is reported as greater than 10 µM and the TGI (TK-10 renal) is reported as greater than 10 µM. The TGI (UACC-62 melanoma) was greater than 10 µM, the TGI (ACHN renal) was greater than 10 µM and the TGI (SK-MEL-2 melanoma) was greater than 10 µM. The TGI (SK-OV-3 ovarian) was greater than 10 µM, the TGI (COLO 205 colon) was greater than 10 µM and the TGI (HCT-116 colon) was greater than 10 µM. It also gave a TGI (OVCAR-8 ovarian) greater than 10 µM, a TGI (EKVX NSCLC) greater than 10 µM and a TGI (SNB-19 CNS) greater than 10 µM. For the same compound, the TGI (SF-295 CNS) was greater than 10 µM, the TGI (NCI/ADR-RES ovarian) was greater than 10 µM and the TGI (MDA-MB-231 breast) was greater than 10 µM. It also gave a TGI (OVCAR-5 ovarian) greater than 10 µM, a TGI (A549 NSCLC) greater than 10 µM and a TGI (HS 578T breast) greater than 10 µM. The TGI (BT-549 breast) was greater than 10 µM, the TGI (K-562 leukemia) was greater than 10 µM and the TGI (HCT-15 colon) was greater than 10 µM. The TGI (SF-268 CNS) was greater than 10 µM, the TGI (RXF 393 renal) was greater than 10 µM and the TGI (MDA-MB-435) was greater than 10 µM. The TGI (HL-60(TB) leukemia) was greater than 10 µM, the TGI (NCI-H23 lung) was greater than 10 µM and the TGI (SNB-75 CNS) was greater than 10 µM. It also gave a TGI (T-47D breast) greater than 10 µM, a TGI (HOP-92 NSCLC) greater than 10 µM and a TGI (HOP-62 NSCLC) greater than 10 µM. The TGI (M14 melanoma) was greater than 10 µM, the TGI (LOX IMVI melanoma) was greater than 10 µM and the TGI (NCI-H522 lung) was greater than 10 µM. For the same compound, the TGI (HCC-2998 colon) was greater than 10 µM, the TGI (NCI-H460 lung) was greater than 10 µM and the TGI (SK-MEL-28 melanoma) was greater than 10 µM. For the same compound, the TGI (PC-3 prostate) was greater than 10 µM, the TGI (RPMI-8226 leukemia) was greater than 10 µM and the TGI (CCRF-CEM leukemia) was greater than 10 µM. The TGI (SR leukemia) was greater than 10 µM, the TGI (IGROV1 ovarian) was greater than 10 µM and the TGI (DU-145 prostate) was greater than 10 µM. For the same compound, the TGI (MDA-N) was greater than 10 µM, the TGI (MOLT-4 leukemia) was greater than 10 µM and the TGI (UACC-257 melanoma) was greater than 10 µM. For the same compound, the TGI (OVCAR-4 ovarian) was greater than 10 µM, the TGI (SK-MEL-5 melanoma) was greater than 10 µM and the TGI (HT29 colon) was greater than 10 µM. For the same compound, the TGI (OVCAR-3 ovarian) was greater than 10 µM, the TGI (U251 CNS) was greater than 10 µM and the TGI (MCF7 breast) was greater than 10 µM. For the same compound, the TGI (KM12 colon) was greater than 10 µM, the TGI (NCI-H226 lung) was greater than 10 µM and the TGI (SF-539 CNS) was greater than 10 µM. For the same compound, the TGI (SW-620 colon) was greater than 10 µM, the TGI (786-0 renal) was greater than 10 µM and the TGI (SN12C renal) was greater than 10 µM.
